The subject of assay [1] is glp-4(bn2) worms reared on RNAi, exposed to P. aeruginosa PA14. The assay is described as follows: P. aeruginosa liquid killing assay after RNAi knockdown. It is filed as in vivo, Caenorhabditis elegans. Particulars: for Rescue in liquid killing after RNAi of a panel of phosphatases, kinases, transcription factors and most upregulated genes: Fig S4A; for Rescue in liquid killing after mdt-15(RNAi): P. aeruginosa PA14, LK56 at 32 µM. An excerpt:
Based on the presence of effectors for well-known innate immune pathways in the transcriptional profiles of C. elegans exposed to LK molecules, we predicted that the compounds were acting through one or more of these pathways, despite the low levels of reporter activation. To test this, RNAi was used to knock down daf-16/FOXO, elt-2/GATA, pmk-1/p38 MAPK, atf-7/ATF7, or skn-1/Nrf2. Sterile, young adult glp-4(bn2) worms were then exposed to P. aeruginosa under liquid killing conditions in the presence of either DMSO or one of the immunostimulatory compounds.
RNAi conditions measured at different time points are represented by different graphs within the same panel. […] At least six wells, containing 20 worms each, were used per biological replicate to determine survival for each condition, and averages from at least three biological replicates are shown. *, P < 0.05; **, P < 0.01; ***, P < 0.001. P values were calculated using Student’s t test. Error bars represent standard error of the mean.
(A) Sterile, young adult glp-4(bn2) worms were reared on RNAi targeting irid-28, F38B2.4, T24B8.5, mex-5, Y105C5B.15, comt-4, or empty vector and then exposed to P. aeruginosa in the liquid killing assay. (B) Sterile, young adult glp-4(bn2) worms were reared on RNAi targeting met-2, osm-8, rde-4, oga-1, daf-2, lin-35, glp-1, dpy-10, or dpy-9 and then exposed to P. aeruginosa in the liquid killing assay. These genes were chosen using WormEXP with the criterion that gene expression after mutation would be similar (in terms of upregulation and downregulation) to exposure to LK56. Endpoints were collected at different times (to allow DMSO-treated worms to be approximately 30 to 50% dead). Assays collected at different time points are shown on different graphs. […] For each experiment, three biological replicates were performed, with each replicate comprised of six wells with 20 worms/well. Error bars represent standard error of the mean. *, P < 0.05; **, P < 0.01; ***, P < 0.001. P values were calculated using Student’s t test. Download FIG S4, PDF file, 0.2 MB.
Due to its strong rescue and unique transcriptional profile, we also created a panel of genes to test for LK56. […] This effect was specific, since mdt-15(RNAi) had no effect on the ability of LK35 or LK38 to rescue in this assay (Fig. 7B). Importantly, MDT-15 was also required for LK56-mediated rescue in E. faecalis and S. aureus pathogenesis assays (Fig. 7C).
FIG 7 Rescue from pathogens by LK56 requires […]. (A and B) Young adult glp-4(bn2) worms reared on vector or mdt-15(RNAi) were incubated with P. aeruginosa strain PA14 in the liquid killing assay with or without LK56 at 32 µM. (B) Young adult glp-4(bn2) worms reared on vector or mdt-15(RNAi) were exposed to P. aeruginosa PA14 in the liquid killing assay in the presence of LK35, LK38, or DMSO. (C) Young adult glp-4(bn2) worms reared on vector or mdt-15(RNAi) and then exposed to E. faecalis or S. aureus in liquid-based assays in the presence or absence of LK56 at 32 µM. (D) Young adult glp-4(bn2) worms reared on vector, nhr-49(RNAi), or nhr-45(RNAi) were incubated with P. aeruginosa PA14 in the liquid killing assay with or without LK56 at 32 µM. Each replicate included at least six wells, with approximately 20 worms per well. The data shown are mean values from a representative replicate. *, P < 0.05; **, P < 0.01; ***, P < 0.001. P values were calculated using Student’s t test. Error bars represent the standard error of the mean. At least three biological replicates were performed.
MDT-15 partners with at least two different nuclear hormone receptors, NHR-45 and NHR-49, to regulate gene expression.

For assay [2], the system named is SKN-1/Nrf pathway. The experiment in a line: gst-4p::GFP reporter. It is filed as in vivo, Caenorhabditis elegans. As to conditions: 100 μM in 1% DMSO, no pathogen. An excerpt: To test activation of these pathways, worms carrying GFP-based reporters for the SKN-1/Nrf, PMK-1/p38 MAPK, and DAF-16/FOXO pathways (gst-4p::GFP, irg-5p::GFP, and DAF-16::GFP, respectively) were exposed to each compound in S Basal medium in the absence of the pathogen.
FIG 4 A subset of LK molecules activates reporters for the SKN-1/Nrf2 or PMK-1/p38 MAPK pathways. […] Also present are DMSO and ethanol negative controls for LK compounds and juglone, respectively. The fluorescence intensity was normalized to that of DMSO. (B) Worms carrying an irg-5p::GFP reporter for PMK-1/p38 MAPK activity were incubated at 25, 50, or 100 μM in 1% DMSO. Positive and negative controls consisted of 100 μM RPW-24 in 1% DMSO and 1% DMSO alone. Fluorescence was measured at 24 h. For both panels, ∼50 worms were used per well, and at least three wells were used per condition for each biological replicate. Mean values from at least three biological replicates are shown. *, P < 0.05; **, P < 0.01; ***, P < 0.001 compared to the solvent control. P values were calculated using Student’s t test. Error bars represent the standard error of the mean.
Worms were washed three times prior to incubation with compounds or DMSO control and diluted in S Basal medium supplemented with E. coli OP50 (OD600 = 0.08) as a food source. The fluorescence fold increase for gst-4p::GPF was taken as the fluorescence of each well and was normalized to the well’s fluorescence at 0 h. irg-5p::GFP, hsp-16.1p::GFP, rpt-6p::GFP, and hsp-4::GFP fluorescence was quantified as the fluorescence/worm area. For gst-4p::GFP, 100 µM ethanol-solubilized juglone was used as a positive control. Ethanol was also tested at 1% (vol/vol) as a control. For irg-5p::GFP, RPW-24 (100 µM) was used as a positive control. For quantification of nuclear localization of GFP fusion reporters, worms were scored as either localization positive or localization negative. DAF-16::GFP worms were scored as localization positive if >5 nuclei within the worm had localized GFP. All worms were imaged at the L4-young adult stage. […]

Regarding `CCN(CC)/N=N/c1ccc(C(=O)O)cc1` [LK35], in assay [1], the “Rescue in liquid killing after RNAi of a panel of phosphatases, kinases, transcription factors and most upregulated genes” value (“Rescue in liquid killing after RNAi” for short) is given as “rescue was unchanged”; the “Rescue in liquid killing after mdt-15(RNAi)” value (“Rescue … after mdt-15(RNAi)” below) was “no effect”.

As for `O=c1cc(CNc2ccc(Br)cc2)nc2sccn12` [LK56], the “gst-4p::GFP induction (SKN-1/Nrf activation)” value (shortened to “gst-4p::GFP induction”) in assay [2] is “not activated”. Besides, the “Rescue in liquid killing after nhr-49(RNAi)” value in assay [1] (P. aeruginosa PA14, 32 µM) is recorded as “abolished compound rescue”. Moreover, the “Rescue … after mdt-15(RNAi)” value in assay [1] was “completely abolish LK56-dependent rescue”.

As to `COC(=O)/C=C/C(=O)Nc1ccccc1` [LK32], the “gst-4p::GFP induction” value in assay [2] is on record as “induced gst-4p::GFP”.

Turning to `CNC(=O)Oc1c(Br)cc2sc(=O)oc2c1Br` [LK34], in assay [2], the “gst-4p::GFP induction” value was “induced gst-4p::GFP”. Also, the “Rescue in liquid killing after RNAi” value in assay [1] was “rescue was unchanged”.

With `CN(C)/N=N/c1ccc(-c2cn(Cc3ccccc3)cn2)cc1` [LK38], in assay [1], the “Rescue in liquid killing after RNAi” value was “rescue was unchanged”; the “Rescue … after mdt-15(RNAi)” value was “no effect”.

The values above are taken from paper PMC7845594, “Novel Immune Modulators Enhance Caenorhabditis elegans Resistance to Multiple Pathogens” (mSphere, 2021).
